Target: T1, Smc1/Smc3 heterodimer with Scc1-C (cohesin) (Saccharomyces cerevisiae, UniProt P32908+P47037, P32908:E1158Q, form not given)
T1 construct: N-terminal tags; Sf9 insect cells; fluorescently labelled for MST; with Sister chromatid cohesion protein 1
T1 sequence (P32908 1-1225 E1158Q): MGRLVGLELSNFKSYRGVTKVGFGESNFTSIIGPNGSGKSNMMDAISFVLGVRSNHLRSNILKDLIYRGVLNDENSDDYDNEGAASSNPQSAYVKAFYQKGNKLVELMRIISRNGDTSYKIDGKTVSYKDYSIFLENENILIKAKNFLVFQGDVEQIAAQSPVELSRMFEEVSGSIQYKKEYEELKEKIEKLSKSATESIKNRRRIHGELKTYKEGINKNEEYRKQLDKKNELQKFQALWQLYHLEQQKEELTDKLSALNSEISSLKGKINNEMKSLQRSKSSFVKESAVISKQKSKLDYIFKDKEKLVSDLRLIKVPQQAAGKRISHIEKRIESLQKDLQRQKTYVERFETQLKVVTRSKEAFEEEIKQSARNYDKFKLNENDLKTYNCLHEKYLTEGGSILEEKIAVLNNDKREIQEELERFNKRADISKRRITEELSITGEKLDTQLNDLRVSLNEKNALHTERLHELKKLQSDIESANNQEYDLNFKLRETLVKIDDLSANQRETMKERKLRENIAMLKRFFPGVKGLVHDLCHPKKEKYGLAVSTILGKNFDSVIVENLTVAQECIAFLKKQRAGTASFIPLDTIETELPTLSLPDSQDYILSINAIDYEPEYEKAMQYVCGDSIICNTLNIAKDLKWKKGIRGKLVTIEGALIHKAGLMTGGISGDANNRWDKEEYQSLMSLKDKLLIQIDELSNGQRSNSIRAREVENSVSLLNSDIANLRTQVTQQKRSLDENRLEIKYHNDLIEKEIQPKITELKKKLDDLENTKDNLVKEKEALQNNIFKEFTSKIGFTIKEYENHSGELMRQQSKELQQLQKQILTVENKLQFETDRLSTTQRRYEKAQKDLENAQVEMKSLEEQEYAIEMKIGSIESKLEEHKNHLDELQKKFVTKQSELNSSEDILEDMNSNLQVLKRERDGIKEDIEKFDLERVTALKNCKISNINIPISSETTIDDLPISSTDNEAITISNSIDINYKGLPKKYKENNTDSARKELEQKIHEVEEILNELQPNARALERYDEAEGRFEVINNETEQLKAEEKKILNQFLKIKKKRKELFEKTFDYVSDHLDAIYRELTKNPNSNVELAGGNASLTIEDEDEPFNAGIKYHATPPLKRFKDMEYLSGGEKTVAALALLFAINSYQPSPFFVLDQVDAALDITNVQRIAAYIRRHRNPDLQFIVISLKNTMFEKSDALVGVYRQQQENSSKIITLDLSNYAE
T1 sequence (P47037 1-1230): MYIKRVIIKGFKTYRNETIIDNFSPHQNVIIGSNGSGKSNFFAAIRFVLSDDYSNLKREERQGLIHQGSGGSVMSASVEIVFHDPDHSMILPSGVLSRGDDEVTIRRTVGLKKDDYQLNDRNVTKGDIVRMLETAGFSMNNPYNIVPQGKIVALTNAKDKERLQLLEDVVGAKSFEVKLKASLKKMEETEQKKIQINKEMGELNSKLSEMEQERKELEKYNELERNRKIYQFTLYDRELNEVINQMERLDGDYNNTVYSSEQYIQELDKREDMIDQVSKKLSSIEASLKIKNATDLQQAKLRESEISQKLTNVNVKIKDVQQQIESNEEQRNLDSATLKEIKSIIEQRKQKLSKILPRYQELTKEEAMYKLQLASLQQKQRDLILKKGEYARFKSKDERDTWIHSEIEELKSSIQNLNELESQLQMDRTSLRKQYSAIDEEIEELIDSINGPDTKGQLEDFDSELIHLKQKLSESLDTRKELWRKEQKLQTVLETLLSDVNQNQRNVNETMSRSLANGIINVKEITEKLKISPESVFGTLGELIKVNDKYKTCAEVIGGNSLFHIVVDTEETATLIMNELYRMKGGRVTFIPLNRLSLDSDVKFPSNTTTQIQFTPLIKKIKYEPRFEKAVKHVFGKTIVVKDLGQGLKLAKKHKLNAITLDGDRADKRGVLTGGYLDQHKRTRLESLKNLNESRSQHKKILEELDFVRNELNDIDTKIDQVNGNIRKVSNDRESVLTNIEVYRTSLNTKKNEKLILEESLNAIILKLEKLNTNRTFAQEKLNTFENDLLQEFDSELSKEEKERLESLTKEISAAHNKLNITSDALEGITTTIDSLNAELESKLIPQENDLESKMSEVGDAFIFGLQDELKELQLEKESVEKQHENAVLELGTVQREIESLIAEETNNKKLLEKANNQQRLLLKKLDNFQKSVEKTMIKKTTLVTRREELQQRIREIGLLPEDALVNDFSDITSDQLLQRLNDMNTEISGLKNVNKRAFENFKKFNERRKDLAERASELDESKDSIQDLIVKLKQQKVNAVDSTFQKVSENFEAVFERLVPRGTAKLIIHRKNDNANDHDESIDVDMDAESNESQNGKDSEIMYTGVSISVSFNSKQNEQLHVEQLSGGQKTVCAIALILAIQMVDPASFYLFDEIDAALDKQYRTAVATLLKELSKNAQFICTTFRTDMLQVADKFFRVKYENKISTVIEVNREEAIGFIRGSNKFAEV
T1 sequence (Q12158 1-566 partner): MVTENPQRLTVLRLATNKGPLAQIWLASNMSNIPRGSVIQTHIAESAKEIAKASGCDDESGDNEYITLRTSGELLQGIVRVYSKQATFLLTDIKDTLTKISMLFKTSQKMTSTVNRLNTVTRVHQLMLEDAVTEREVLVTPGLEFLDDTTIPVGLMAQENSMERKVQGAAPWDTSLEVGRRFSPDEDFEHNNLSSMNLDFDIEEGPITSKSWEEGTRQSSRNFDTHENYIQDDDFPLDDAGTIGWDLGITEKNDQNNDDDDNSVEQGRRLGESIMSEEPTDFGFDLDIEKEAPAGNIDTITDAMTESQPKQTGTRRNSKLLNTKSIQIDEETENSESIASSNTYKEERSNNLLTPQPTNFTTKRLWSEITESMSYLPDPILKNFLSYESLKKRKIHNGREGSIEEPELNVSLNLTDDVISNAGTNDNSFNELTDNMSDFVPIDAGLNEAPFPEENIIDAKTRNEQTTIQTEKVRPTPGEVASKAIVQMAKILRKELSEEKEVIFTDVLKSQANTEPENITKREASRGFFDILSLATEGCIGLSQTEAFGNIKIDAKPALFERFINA
Assay: microscale thermophoresis
Type: binding
Conditions: fluorescently labelled protein; Smc1 co-purified with Scc1-C, plus Smc3; read-out: affinity
From the text: microscale thermophoresis on Smc1/Smc3 heterodimer with Scc1-C (cohesin) | Smc1 L1129V, D1164E and E1158Q mutants all had wild-type-like affinity to both ATP and ADP | wild-type and mutant cohesin complexes appear to have similar affinities to ADP

## Nc1ncnc2c1ncn2[C@@H]1O[C@H](COP(=O)(O)OP(=O)(O)O)[C@@H](O)[C@H]1O [ADP]
  Kd: > 1000 µM

## Nc1ncnc2c1ncn2[C@@H]1O[C@H](COP(=O)(O)OP(=O)(O)OP(=O)(O)O)[C@@H](O)[C@H]1O [ATP]
  Kd: 567 ± 289 µM

From article PMC4769319, “Cohesin Releases DNA through Asymmetric ATPase-Driven Ring Opening” (Molecular Cell, 2016)
